This is an account of results in patent US12441768B2, “Compositions and methods for treating endometriosis” (EndoMet Biosciences, Inc., priority 2018, dated 2025).

Molecules are shown by their SMILES. Where a SMILES comes first, the peptide text is derived from it. A value given as a limit tells only on which side of the number the result lay.

The target in series [1] is Wnt-responsive promoter (TCF/LEF). Briefly: Wnt-dependent luciferase reporter assay. The format is cell-based, murine. In outline:
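EC50 (uM) derived from inhibition of luminescence in Wnt3a-stimulated murine 3T3 cells expressing luciferase under a TCF/LEF promoter, with peptides added across a concentration range and vehicle as control.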

In the next series the target is T1, β-catenin (Homo sapiens, UniProt P35222).
T1 sequence (P35222 1-781): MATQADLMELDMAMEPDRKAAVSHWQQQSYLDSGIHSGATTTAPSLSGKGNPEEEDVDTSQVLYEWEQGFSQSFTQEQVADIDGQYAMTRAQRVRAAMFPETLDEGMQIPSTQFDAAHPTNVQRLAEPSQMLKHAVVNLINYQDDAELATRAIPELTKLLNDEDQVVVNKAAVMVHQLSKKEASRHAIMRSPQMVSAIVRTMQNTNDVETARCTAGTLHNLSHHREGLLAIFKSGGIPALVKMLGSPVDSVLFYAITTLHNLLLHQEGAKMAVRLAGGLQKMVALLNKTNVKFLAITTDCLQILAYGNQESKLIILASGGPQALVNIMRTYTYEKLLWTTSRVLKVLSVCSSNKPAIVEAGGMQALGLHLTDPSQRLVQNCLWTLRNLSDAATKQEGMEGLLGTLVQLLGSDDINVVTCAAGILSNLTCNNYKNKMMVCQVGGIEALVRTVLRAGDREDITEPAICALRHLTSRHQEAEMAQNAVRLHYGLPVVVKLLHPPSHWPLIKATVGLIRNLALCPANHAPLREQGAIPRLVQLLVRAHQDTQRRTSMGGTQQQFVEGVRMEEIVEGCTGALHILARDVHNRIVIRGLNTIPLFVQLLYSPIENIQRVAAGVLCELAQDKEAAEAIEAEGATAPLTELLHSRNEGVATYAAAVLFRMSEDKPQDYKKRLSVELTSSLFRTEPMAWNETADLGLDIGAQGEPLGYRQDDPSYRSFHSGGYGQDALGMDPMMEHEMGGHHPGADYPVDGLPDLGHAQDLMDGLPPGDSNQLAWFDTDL
Kind of series: KD50 measurement using competitive fluorescence polarization (FP) with labelled TCF4. The format is binding. The conditions noted are these: fluorescence polarization, β-catenin; for Kd: read-out: β-Cat FP KD. In outline: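 Each compound competes against labelled TCF4 (5 nM) for 100 nM β-catenin at room temperature, tested over 10 nM to 30 uM. Signal: polarization at 470/520 nm excitation/emission. Three repeat experiments were performed.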

For series [2] the following is noted: % Viability non-Wnt responsive cells.

As a reminder, the EC50 is the concentration at which the effect is half-maximal. What is called Kd is the free concentration of one partner at which half of the binding sites on the other are occupied at equilibrium, for simple one-to-one binding. For orientation: viability means a read-out of living cells in per cent, often relative to untreated cells. In series [1], `CC[C@H](C)[C@H](NC(=O)[C@H](CC(C)C)NC(=O)[C@H](Cc1ccccc1)NC(=O)[C@H](Cc1c[nH]c2ccccc12)NC(=O)[C@@H](NC(=O)[C@H](CCCNC(=N)N)NC(=O)[C@H](CO)NC(=O)[C@@H](N)CCSC)[C@@H](C)O)C(=O)N[C@@H](CO)C(=O)N[C@@H](Cc1ccccc1)C(=O)N[C@@H](Cc1c[nH]c2ccccc12)C(=O)NCC(=O)O` [compound 48] (H-MSRTWFLISFWG-OH) showed an EC50 of 7.5 to 15 µM. On β-catenin, the Kd is above 30 µM. Also, the viability in series [2] was found to be 101%.
Taken in the same sequence, the figures for `CC[C@H](C)[C@H](NC(=O)[C@H](CC(C)C)NC(=O)[C@H](Cc1ccccc1)NC(=O)[C@H](Cc1c[nH]c2ccccc12)NC(=O)[C@@H](N)CCSC)C(=O)N[C@@H](CO)C(=O)N[C@@H](Cc1ccccc1)C(=O)N[C@@H](Cc1c[nH]c2ccccc12)C(=O)N[C@@H](CCCNC(=N)N)C(=O)NCC(=O)O` [compound 49] (H-MWFLISFWRG-OH) were below 7.5 µM, above 30 µM and 103%.
Consider `CC[C@H](C)[C@H](NC(=O)[C@H](CC(C)C)NC(=O)[C@H](Cc1ccccc1)NC(=O)[C@H](C)N(C)C(=O)[C@H](CCSC)NC(=O)[C@H](CCCNC(=N)N)NC(=O)[C@H](CO)NC(=O)[C@@H](N)CCSC)C(=O)N[C@@H](CO)C(=O)N[C@@H](Cc1ccccc1)C(=O)N[C@@H](Cc1c[nH]c2ccccc12)C(=O)NCC(=O)O` [compound 50] (HELM PEPTIDE1{M.S.R.M.[meA].F.L.I.S.F.W.G}$$$$V2.0), for which the EC50 in series [1] is above 30 µM. Further, on β-catenin, the “β-Cat FP Hill slope” value was 0.76 and the Kd was in the range of 1 to 10 µM. Also, the viability in series [2] stood at 96.7%.
In turn, `CC[C@H](C)[C@H](NC(=O)[C@H](CC(C)C)NC(=O)[C@H](Cc1ccccc1)NC(=O)[C@H](CC(C)C)NC(=O)[C@H](CCSC)NC(=O)[C@H](CCCNC(=N)N)NC(=O)[C@H](CO)NC(=O)[C@@H](N)CCSC)C(=O)N[C@@H](CO)C(=O)N[C@@H](Cc1ccccc1)C(=O)N[C@@H](Cc1c[nH]c2ccccc12)C(=O)NCC(=O)O` [compound 52] (H-MSRMLFLISFWG-OH) registered an EC50 in series [1] of 15 to 22.5 µM. Besides, the Kd on β-catenin was above 30 µM. The viability in series [2] was 87.2%.
For `CC[C@H](C)[C@H](NC(=O)[C@H](CC(C)C)NC(=O)[C@H](Cc1ccccc1)NC(=O)[C@H](Cc1c[nH]c2ccccc12)N(C)C(=O)[C@H](CCSC)NC(=O)[C@H](CCCNC(=N)N)NC(=O)[C@@H](NC(=O)[C@@H](N)CCSC)[C@@H](C)CC)C(=O)N[C@@H](CO)C(=O)N[C@@H](Cc1ccccc1)C(=O)N[C@@H](Cc1c[nH]c2ccccc12)C(=O)NCC(=O)O` [compound 53] (HELM PEPTIDE1{M.I.R.M.[meW].F.L.I.S.F.W.G}$$$$V2.0) the same measures were above 30 µM, above 30 µM and 103%.
Regarding `CC[C@H](C)[C@H](NC(=O)[C@H](CC(C)C)NC(=O)[C@H](Cc1ccccc1)NC(=O)[C@H](Cc1c[nH]c2ccccc12)NC(=O)[C@H](CCSC)NC(=O)[C@H](CCCNC(=N)N)NC(=O)[C@H](CO)NC(=O)[C@@H](N)CCSC)C(=O)N[C@@H](CO)C(=O)N[C@@H](CO)C(=O)N[C@@H](Cc1c[nH]c2ccccc12)C(=O)NCC(=O)O` [compound 54] (H-MSRMWFLISSWG-OH), the EC50 in series [1] lay in the range of 15 to 22.5 µM. Moreover, at β-catenin, the “β-Cat FP Hill slope” value is listed as 0.7 and the dissociation constant (Kd) lay in the range of 1 to 10 µM. Further, the viability in series [2] was 98.3%.
Regarding `CC[C@H](C)[C@H](NC(=O)[C@H](CC(C)C)NC(=O)[C@H](Cc1ccccc1)NC(=O)[C@H](Cc1c[nH]c2ccccc12)NC(=O)[C@@H](NC(=O)[C@H](CCCNC(=N)N)NC(=O)[C@H](CO)NC(=O)[C@@H](N)CCSC)[C@@H](C)CC)C(=O)N[C@@H](CO)C(=O)N[C@@H](Cc1ccccc1)C(=O)N[C@@H](Cc1c[nH]c2ccccc12)C(=O)NCC(=O)O` [compound 55] (H-MSRIWFLISFWG-OH), in series [1], the EC50 is below 7.5 µM. Moreover, the Kd at β-catenin was above 30 µM. In addition, the viability in series [2] came to 101%.
In the case of `CSCC[C@H](NC(=O)[C@H](CCCNC(=N)N)NC(=O)[C@H](CO)NC(=O)[C@@H](N)CCSC)C(=O)N[C@@H](Cc1c[nH]c2ccccc12)C(=O)N[C@@H](Cc1ccccc1)C(=O)N[C@@H](CC(C)C)C(=O)N[C@H](C(=O)N[C@@H](CO)C(=O)N[C@@H](Cc1ccccc1)C(=O)N[C@@H](Cc1c[nH]c2ccccc12)C(=O)NCC(=O)O)C(C)C` [compound 56] (H-MSRMWFLVSFWG-OH), the EC50 in series [1] was 7.5 to 15 µM. Moreover, the Kd on β-catenin was above 30 µM. The viability in series [2] came to 100%.
Take `CC[C@H](C)[C@H](NC(=O)[C@H](CC(C)C)NC(=O)[C@H](Cc1ccccc1)NC(=O)[C@H](Cc1c[nH]c2ccccc12)NC(=O)[C@H](CCSC)NC(=O)[C@H](CCCNC(=N)N)NC(=O)[C@H](CO)NC(=O)[C@@H](N)CCSC)C(=O)N[C@@H](CO)C(=O)N[C@@H](Cc1ccccc1)C(=O)N[C@@H](Cc1c[nH]c2ccccc12)C(=O)N[C@@H](CCC(=O)O)C(=O)NCC(=O)O` [compound 57] (H-MSRMWFLISFWEG-OH): the EC50 in series [1] was below 7.5 µM. At β-catenin, the “β-Cat FP Hill slope” value was 0.7 and the Kd was in the range of 1 to 10 µM. For the same compound, the viability in series [2] came to 104%.
For `CC[C@H](C)[C@H](NC(=O)[C@H](CC(C)C)NC(=O)[C@H](Cc1ccccc1)NC(=O)[C@H](Cc1c[nH]c2ccccc12)NC(=O)[C@H](CCSC)NC(=O)[C@H](CCCNC(=N)N)NC(=O)[C@H](CO)NC(=O)[C@@H](N)CCSC)C(=O)N[C@@H](CO)C(=O)N[C@@H](Cc1ccccc1)C(=O)N[C@@H](Cc1c[nH]c2ccccc12)C(=O)N[C@@H](CCCNC(=N)N)C(=O)NCC(=O)O` [compound 58] (H-MSRMWFLISFWRG-OH), the EC50 in series [1] is 22.5 to 30 µM. On β-catenin, the Kd was above 30 µM. In addition, in series [2], the viability turned out to be 106%.
For `CC[C@H](C)[C@H](NC(=O)[C@H](CC(C)C)NC(=O)[C@H](Cc1ccccc1)NC(=O)[C@H](Cc1c[nH]c2ccccc12)NC(=O)[C@H](CCCCN)NC(=O)[C@H](CCCNC(=N)N)NC(=O)[C@H](CO)NC(=O)[C@@H](N)CCSC)C(=O)N[C@@H](CO)C(=O)N[C@@H](Cc1ccccc1)C(=O)N[C@@H](Cc1c[nH]c2ccccc12)C(=O)NCC(=O)O` [compound 59] (H-MSRKWFLISFWG-OH) the same measures were above 30 µM, above 30 µM and 102%.
Taken in the same sequence, the figures for `CC[C@H](C)[C@H](NC(=O)[C@H](CC(C)C)NC(=O)[C@H](CC(C)C)NC(=O)[C@H](Cc1c[nH]c2ccccc12)NC(=O)[C@H](CCSC)NC(=O)[C@H](CCCNC(=N)N)NC(=O)[C@H](CO)NC(=O)[C@@H](N)CCSC)C(=O)N[C@@H](CO)C(=O)N[C@@H](Cc1ccccc1)C(=O)N[C@@H](Cc1c[nH]c2ccccc12)C(=O)NCC(=O)O` [compound 60] (H-MSRMWLLISFWG-OH) were 7.5 to 15 µM, above 30 µM and 101%.
In series [1], `CC[C@H](C)[C@H](NC(=O)[C@H](CC(C)C)NC(=O)[C@H](Cc1ccccc1)NC(=O)[C@H](Cc1c[nH]c2ccccc12)NC(=O)[C@H](CCSC)NC(=O)[C@H](CCCNC(=N)N)NC(=O)[C@H](CC(N)=O)NC(=O)[C@@H](N)CCSC)C(=O)N[C@@H](CO)C(=O)N[C@@H](Cc1ccccc1)C(=O)N[C@@H](Cc1c[nH]c2ccccc12)C(=O)NCC(=O)O` [compound 61] (H-MNRMWFLISFWG-OH) came in with an EC50 of 7.5 to 15 µM. For the same compound, the Kd at β-catenin is above 30 µM. Moreover, the viability in series [2] was 100%.
With `CSCC[C@H](NC(=O)[C@H](CCCNC(=N)N)NC(=O)[C@H](CO)NC(=O)[C@@H](N)CCSC)C(=O)N[C@@H](Cc1c[nH]c2ccccc12)C(=O)N[C@@H](Cc1ccccc1)C(=O)N[C@@H](CC(C)C)C(=O)N[C@H](C(=O)N[C@@H](CO)C(=O)N[C@@H](Cc1ccccc1)C(=O)N[C@@H](Cc1c[nH]c2ccccc12)C(=O)NCC(=O)O)[C@@H](C)O` [compound 62] (H-MSRMWFLTSFWG-OH), in series [1], the EC50 is above 30 µM. Also, the Kd on β-catenin is above 30 µM. Besides, the viability in series [2] stood at 104%.
For the compound `CSCC[C@H](NC(=O)[C@H](CCCNC(=N)N)NC(=O)[C@H](CO)NC(=O)[C@@H](N)CCSC)C(=O)N[C@@H](Cc1c[nH]c2ccccc12)C(=O)N[C@@H](Cc1ccccc1)C(=O)N[C@@H](CC(C)C)C(=O)N[C@@H](Cc1ccccc1)C(=O)N[C@@H](CO)C(=O)N[C@@H](Cc1ccccc1)C(=O)N[C@@H](Cc1c[nH]c2ccccc12)C(=O)NCC(=O)O` [compound 63] (H-MSRMWFLFSFWG-OH), the EC50 in series [1] is below 7.5 µM. For the same compound, the Kd at β-catenin is above 30 µM. Also, in series [2], the viability came to 97.9%.
